In patent US20110178104A1, “Anti-Heparin Compounds” (POLYMEDIX INC., priority 2010, published 2011):
pEC50: −log10 of the molar value. In brackets after ≈: the same amount, converted by molar mass. Several values for one entry are separate records, joined by “and”; a condition that tells them apart may be missing. Equal values may be shown once.

Legend:
[1] = system: unfractionated heparin (UFH); test: aPTT clotting assay, UFH 0.2 U/mL in plasma (Example 7); type: biochemical; details: UFH 0.2 U/mL in plasma
Method: (§1) aPTT clotting Assay. Unfractionated heparin was mixed with plasma at a final concentration of 0.2 U/mL. […] The ACL Elite Hemostasis analyzer (Beckman Coulter™) was used to add aPTT reagent (HemosIL SynthASil) to supplemented plasma. Clotting was initiated by addition of CaCl2 and time to clot was recorded.

UFH [2] = test: FXa amidolytic assay in human plasma, UFH; type: biochemical; details: UFH 4 μg/mL
Method: (§2) Eight parts of pooled human plasma was supplemented with 1 part LMWH or UFH at final concentrations of 4 μg/mL, or fondarinux at a final concentration of 1.25 μg/mL. One 1 μL sample of test agent was then added to 9 μL of supplemented plasma (test agent concentration ranges=0.156 to 20 μg/mL) and mixed. The supplemented plasmas were analyzed immediately in clotting and amidolytic assays as described below. All samples were performed in duplicate.
FXa Amidolytic Assay: Bovine factor Xa was added to supplemented plasma and incubated for 5 minutes at 37° C. Spectrozyme FXa substrate was added and the optical density change at 405 nm was measured for 30 seconds. % factor Xa inhibition is calculated using the following equation:
(§3) % Inhibition=[(ODbaseline−ODsample)/ODbaseline]×100.

enoxaparin [3] = test: FXa amidolytic assay in human plasma, enoxaparin; type: biochemical; details: enoxaparin 10 μg/mL, at a concentration of about 50 μg/mL
UFH [4] = test: FIIa amidolytic assay in human plasma, UFH; type: biochemical; details: UFH 4 μg/mL
Method: as §2
FIIa Amidolytic Assay. Human thrombin was added to supplemented plasma and incubated for 1 minute at 37° C. Spectrozyme TH substrate was added and the optical density change at 405 nm was measured for 30 seconds in a SpectraMax 250 instrument. % factor IIa inhibition was calculated using the following equation:
as §3

enoxaparin (ENOX) = test: FXa chromogenic assay (absence of plasma), enoxaparin; details: enoxaparin 0.1 μg/mL, absence of plasma
fondaparinux (FONDAPX) = test: FXa chromogenic assay (absence of plasma), fondaparinux; details: fondaparinux 0.02 μg/mL, absence of plasma
Method: Human antithrombin was mixed with an anticoagulant agent (a LMWH or fondaparinux); final concentrations were 0.22 μg/mL for the LMWHs and 0.07 μg/mL for fondaparinux. […] Absorbance was read every 30 seconds over a 4 minute period in a SpectraMax 250 instrument (Molecular Devices, Inc.). EC50 values are determined by a curve-fit program (SoftMax Pro) using the following formula:
FXa Chromogenic Assay (absence of plasma). Human antithrombin was mixed with an anticoagulant (a LMWH or fondaparinux); final concentrations were 0.1 μg/mL for the LMWHs and 0.02 μg/mL for fondaparinux. […] Absorbance was read every 30 seconds over a 4 minute period in a SpectraMax 250 instrument (Molecular Devices Inc.™) The slope of absorbance vs time was calculated for each compound concentration. EC50 values were determined using a curve fit program (GraphPad Prism 5).

[5] = system: isolated human erythrocytes; test: in vitro; type: cell-based; details: for EC50: Homo sapiens, Erythrocyte, 1 h, human RBC, 1 hour at 37° C., read-out: Hemolysis EC50
In short: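 Test agent was serially diluted two-fold over 0.48–1000 µg/ml and incubated for 1 h at 37 °C with shaking, using erythrocytes from pooled human blood diluted in Tris-buffered saline pH 7.4 (0.22% stock). Hemolysis was measured as supernatant absorbance at 405 nm. A four-parameter logistic equation gave EC50, and melittin served as the positive control.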

[6] = Cytotoxicity colorimetric assay, HepG2; type: cell-based, human; details: human, HepG2 cells, one hour in serum-free media
In short: (§4)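 HepG2 cells (3×10^4/well, MEM + 10% FBS) and NIH/3T3 cells (2×10^4/well, DMEM + 10% BCS) were exposed to compound for 1 h in serum-free medium. Viability read by tetrazolium-to-formazan bioreduction after return to serum medium; EC50 from a four-parameter logistic fit.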

HepG2 cells = test: Cytotoxicity colorimetric assay, HepG2; type: cell-based, human; details: one hour in serum-free media
In short: as §4

[7] = Cytotoxicity colorimetric assay, NIH/3T3; type: cell-based, mouse; details: mouse, NIH/3T3 cells, one hour in serum-free media
In short: as §4

NIH/3T3 cells = test: Cytotoxicity colorimetric assay, NIH/3T3; type: cell-based, mouse; details: one hour in serum-free media
In short: as §4

Unfractionated heparin = test: aPTT clotting assay, UFH 0.4 U/mL in plasma (Example 10); type: biochemical; details: unfractionated heparin 0.4 U/mL in plasma; aPTT clotting
Method: as §1, with “Assay:” for “Assay.”, “0.4 U/mL (or concentration which increases aPTT time to between 120 and 300 seconds).” for “0.2 U/mL.”

UFH [8] = test: In vivo neutralization of unfractionated heparin in the rat; details: UFH 100 U/kg IV, 1 mg/kg dose IV
Method: The male Sprague-Dawley rats used in this study were obtained from Charles River Laboratories, Raleigh. They were nine-weeks-old at the start of the study and their weights ranged from 279-334 g. Rats were pre-treated with UFH administered by IV injection in a tail vein at 100 U/kg in a dose volume of 1 mL/kg. The rats were then treated with a single IV injection of saline, protamine or the appropriate test compound at doses of 0.25, 0.5 and 1.0 mg/kg. All treatments were dosed in a volume of 1 mL/kg. Blood was collected via the orbital sinus from three rats per group at the following time points after treatment: predose, 1, 3, 10, 30 and 60. At each time point, 1 mL of blood was collected from each animal into a single tube. The blood was analyzed using an AMEX Destiny Plus Coagulation Analyzer for activated partial thromboplastintime (APTT) and anti-Factor Xa.

enoxaparin [9] = test: In vivo neutralization of enoxaparin in the rat; details: compared with protamine
enoxaparin [10] = test: Enoxaparin-extended bleeding times, rat tail transection model; type: in vivo
Method: Studies have now been done to examine effects on extended bleeding times caused by enoxaparin treatment. Male Sprague Dawley rats (Charles River) were administered 2 mg/kg enoxaparin by IV injection in the tail vein, followed 3 minutes later by test agent (IV, tail vein) at 2 and 5 mg/kg doses. Tails were then rapidly transected and bleeding time onto an absorbant pad was determined. Enoxaparin alone (no antagonist) extends bleeding time from 11 to 24 seconds.

fondaparinux [11] = test: In vivo neutralization of fondaparinux in the rat; details: fondaparinux 0.5 mg/kg IV, test agent 2 and 5 mg/kg IV
Method: Compounds were selected to test fondaparinux neutralization in vivo. Rats were pre-treated with fondaparinux administered by IV injection at 0.5 mg/kg. The rats were then treated with a single IV injection of saline, protamine or the PMX compound. Blood was collected via the orbital sinus from three rats per group at the following time points: pre-dose, 1, 3, 10, 30 and 60 min. Plasma samples were prepared for analysis of anti-factor Xa activity using an AMEX Destiny Plus Coagulation Analyzer.

blood pressure = test: Hemodynamic responses in the anesthetized rat; type: in vivo
Text: As a key safety issue for cationic compounds is reduction in blood pressure shortly after administration. To address this hemodynamic issue, a medicinal chemistry strategy with literature precedence of introducing carboxylic acid functionality was applied to the salicylamide series of compounds. […] Surgically prepared animals were purchased from Charles River Laboratories, Raleigh, N.C. Animals were anesthetized on the day of experiment with isoflurane (1.8-4%). Blood pressure and heart rate data were collected on a Grass Polygraph recorder. The test articles, vehicle or protamine dosing preparations were administered once to each rat by a 10 minute intravenous infusion three minutes following a single intravenous injection of heparin (50 U/kg). Each animal received a dose volume of 2.0 mL/kg. Blood pressure was recorded prior to treatment for approximately 1 minute and immediately following heparin, immediately following vehicle, test articles or protamine and at 5, 15, 30, and 60 minutes following dosing. The doses of test agent were either 8 mg/kg or 16 mg/kg. The differences in hemodynamic effect at 16 mg/kg were especially profound (FIG. 5).

[12] = Coagulation properties via ROTEM; details: at fully efficacious doses
UFH [13] = test: FXa amidolytic assay (Example 10), UFH; details: read-out: Heparin FXa uM EC50; UFH 0.03 units/mL; human antithrombin, bovine Factor Xa
Method: (§5) Two μl of test agent are added (range between 0.01 and 23 ug/ml) and incubated for 5 minutes at 23° C. Bovine Factor Xa was added to a final concentration of 0.636 nkat/mL and incubated for a further 10 minutes at 23° C.

tinzaparin = test: FXa amidolytic assay (Example 10), tinzaparin; details: read-out: Tinzap FXa EC50; tinzaparin 0.1 ug/ml; human antithrombin, bovine Factor Xa
Method: as §5

fondaparinux [14] = test: FXa amidolytic assay (Example 10), fondaparinux; details: for pEC50: read-out: Fondap FXa EC50, fondaparinux 0.02 μg/mL, human antithrombin, bovine Factor Xa
Method: as §5

enoxaparin [15] = test: FXa amidolytic assay (Example 10), enoxaparin; details: read-out: Enox FXa EC50; enoxaparin 0.1 ug/ml; human antithrombin, bovine Factor Xa
Method: as §5

[16] = at a concentration of greater than about 25 μg/mL

Compound	UFH (aPTT) EC50 [1] [µg/mL]	percent of the anticoagulant effect of enoxaparin inhibited (FXa amidolytic) (enoxaparin [3])	ENOX (FXa) EC50 (enoxaparin (ENOX)) [µg/mL]	FONDAPX (FXa) EC50 (fondaparinux (FONDAPX)) [µg/mL]	EC50 [5] [µg/mL]	EC50 at 1 h [6] [µg/mL]	EC50 at 1 h [7] [µg/mL]	pEC50 (Unfractionated heparin)	neutralization of UFH activity in aPTT assays (UFH [8])	EC50 (UFH [13]) [µM]	pEC50 (tinzaparin)	pEC50 (fondaparinux [14])	other results
COc1ccc(NC(=O)[C@H](CCCCN)NC(=O)c2cc(NC(=O)[C@H](CCCCN)NC(=O)c3cc(NC(=O)[C@H](CCCCN)NC(=O)c4cc(NC(=O)[C@@H](N)CCCCN)ccc4OC)ccc3OC)ccc2OC)cc1C(N)=O [Compound 8]	2.26	about 60%	0.29	6.19	–	–	–	–	–	–	–	–	percent of the anticoagulant effect of UFH inhibited (FXa amidolytic) (UFH [2]; [16]): 90%-100%; concentration antagonizing about 50% of the anticoagulant effect of UFH (FXa amidolytic) (UFH [2]; human plasma): 12 to 18 µg/mL; percent of the anticoagulant effect of UFH inhibited (FIIa amidolytic) (UFH [4]; [16]): 98%-100%; concentration antagonizing about 50% of the anticoagulant effect of UFH (FIIa amidolytic) (UFH [4]; human plasma): 14 to 20 µg/mL
COc1ccc(NC(=O)[C@@H](CCCNC(=N)N)NC(=O)c2cc(NC(=O)[C@@H](CCCNC(=N)N)NC(=O)c3cc(NC(=O)[C@@H](CCCNC(=N)N)NC(=O)c4cc(NC(=O)[C@@H](C)N)ccc4OC)ccc3OC)ccc2OC)cc1C(N)=O [Compound 16]	2.41	about 20%	0.32	1.22	–	–	–	–	–	–	–	–	–
COc1ccc(NC(=O)[C@@H](CCCNC(=N)N)NC(=O)c2cc(NC(=O)[C@@H](CCCNC(=N)N)NC(=O)c3cc(NC(=O)[C@@H](CCCNC(=N)N)NC(=O)c4cc(NC(=O)[C@H](N)CCCNC(=N)N)ccc4OCC(=O)O)ccc3OC)ccc2OC)cc1C(N)=O [Compound 283]	–	–	–	–	> 1000	1000 (≈ 780 µM)	1000 (≈ 780 µM)	5.86 and 5.74	complete neutralization	0.101	6.91 and 7.02	6.24 and 6.28 and 6.34	hemolysis and cytotoxicity (summary) [5]: non-hemolytic and low cytotoxicity; Cytotoxicity HepG2 EC50 (HepG2 cells): >1000 µg/mL; Cytotoxicity 3T3 EC50 (NIH/3T3 cells): >1000 µg/mL; in vivo efficacy versus LMWH by anti-factor Xa activity (summary) (enoxaparin [9]): superior to protamine; in vivo efficacy versus LMWH by bleeding time (summary) (enoxaparin [10]; compared with protamine): superior to protamine; neutralization of prolonged bleeding times (enoxaparin [10]; rat, enoxaparin 2 mg/kg IV, test agent 2 mg/kg IV): completely neutralized; reduction of Factor Xa (anti-factor Xa) levels after fondaparinux (fondaparinux [11]): lack of effectiveness; hemodynamic response profile (blood pressure; anesthetized rat, 8 or 16 mg/kg 10 minute IV infusion after heparin 50 U/kg): superior to protamine; hemodynamic liabilities (summary) (blood pressure; rat, in vivo): reduced hemodynamic liabilities; coagulation properties via ROTEM [12]: normal coagulation properties at fully efficacious doses; Potent LMWH-antagonists with superior anti-fondaparinux activity (summary) (fondaparinux [14]): superior anti-fondaparinux activity
COc1cc(OC)c(C(=O)N[C@H]2CC[C@H](NC(=O)c3ccc(OCCCCCN)cc3OCCCCCN)CC2)cc1C(=O)N[C@H]1CC[C@H](NC(=O)c2ccc(OCCCCCN)cc2OCCCCCN)CC1 [Compound 335]	–	–	–	–	> 1000	700 (≈ 679 µM)	120 (≈ 116 µM)	5.77 and 5.85	complete neutralization	0.151	6.83 and 6.92	5.81 and 5.86	pEC50 (enoxaparin [15]): 6.73 and 6.70
